Data published in US20230105212A1, “BIPHENYL DERIVATIVE INHIBITOR, PREPARATION METHOD THEREFOR AND USE THEREOF” (SHANGHAI HANSOH BIOMEDICAL CO., LTD., priority 2020, published 2023).

Key:
human PD-1/PD-L1 binding = molecular target: T1, human PD-1/PD-L1 binding (Homo sapiens, UniProt Q9NZQ7); test: Inhibition of human PD-1/PD-L1 binding (TR-FRET/HTRF); conditions: TR-FRET, PD-L1-His and PD-1-Fc; read-out: PD-1/PD-L1 binding IC50
T1 construct: PD-L1-His protein (19 to 238 amino acids) (Abcam #ab167713); purchased Abcam (PD-L1-His); R&D (PD-1-Fc) ab167713; 1086-PD
Text: Test Embodiment 1: Test of Inhibitory Effect of the Compounds of the Present Disclosure on Human PD-1/PD-L1 Binding
Experimental purpose: The purpose of this test embodiment was to measure the inhibitory activity of the compounds on human PD-1/PD-L1 binding.
Experimental reagents: Binding Domain diluent buffer was purchased from Cisbio Company, Cat. No.: 62DLBDDF; MAb Anti-6HIS Eu cryptate Gold was purchased from Cisbio Company with the article number of 61HI2KLA; PAb Anti Human IgG-XL665 was purchased from Cisbio Company with the article number of 61HFCXLB; PD-L1-His protein was purchased from Abcam Company with the article number of ab167713; PD-1-Fc protein was purchased from R&D Company with the article number of 1086-PD; Detection buffer was purchased from Cisbio Company with the article number of 62SDBRDD; 384-well plate was purchased from PerkinElmer Company with the article number of 6007290.
Experimental method: In order to test the inhibitory activity of the compounds on human PD-1/PD-L1 binding, the method of time-resolved fluorescence resonance energy transfer (TR-FRET) was used in this experiment to test the inhibition of the compounds on human PD-1/PD-L1 binding, and the half inhibitory concentration IC50 of inhibitory activity of the compounds on human PD-1/PD-L1 binding was obtained.
This experiment was performed in a 384-well plate with a total reaction volume of 20 μL. Compounds were diluted to different concentrations (10 μM or 1 μM starting, 3-fold dilution, 11 doses) using assay buffer Binding Domain diluent buffer (Cisbio #62DLBDDF), then PD-L1-His protein (19 to 238 amino acids) (Abcam #ab167713) was diluted to 10 nM with assay buffer, and PD-1-Fc protein (25 to 167 amino acids) (R&D #1086-PD) was diluted to 20 nM with assay buffer; the compound, PD-L1 protein and PD-1 protein were added to a 384-well plate respectively, and the total volume was 10 μL, then centrifuged at 1000 rpm for 1 minute to mix well, and incubated for 60 minutes at room temperature. Then 10 μL of a mixed solution of MAb Anti-6HIS Eu cryptate Gold (Cisbio #61HI2KLA) and PAb Anti Human IgG-XL665 (Cisbio #61HFCXLB) diluted by HTRF Detection buffer was added to each well, and centrifuged at 1000 rpm for 1 minute to mix well. The reaction was carried out at room temperature for 3 hours or at 4° C. overnight, then a microplate reader (BioTek Synergy H1) was put into for reading; the excitation wavelength was 340 nm, and the emission wavelengths were 620 nm and 665 nm.
The ratio of fluorescence readings at 620 nm and 665 nm (665 nm/620 nm) was calculated, and the inhibition rate was calculated.

[1] = molecular target: T2, PD-L1 protein on the surface of MC38-hPDL1 tumor cells (Homo sapiens, UniProt Q9NZQ7); test: Induction of endocytosis of PD-L1 on the surface of tumor cells (flow cytometry); assay type: cell-based; conditions: 16 hours incubation; for Emax: MC38-hPDL1 cells, read-out: MC38 maximum endocytosis rate; for IC50: inducing endocytosis of PD-L1, MC38-hPDL1 cells, read-out: MC38 IC50
T2 construct: expressed in transfected cells; host or cells: MC38-hPDL1 (mouse colon cancer cells)
Text: Test Embodiment 2. Test of the Activity of Compounds of the Present Disclosure on Inducing the Endocytosis of PD-L1 Protein on the Surface of Tumor Cells
Experimental purpose: The purpose of this test embodiment was to test the activity of the compound on inducing the endocytosis of PD-L1 on the surface of tumor cells.
Experimental method: In order to test the activity of the compound on inducing the endocytosis of PD-L1, in this experiment, the activity of the compound on inducing the endocytosis of PD-L1 was tested by detecting the change degree of PD-L1 on the tumor cell surface with fluorescently labeled anti-PD-L1 antibody, and the IC50 of activity of the compound on inducing the endocytosis of PD-L1 was obtained.
The mouse colon cancer cells MC38-hPDL1 with high expression of hPD-L1 were collected, and adjusted to a suitable density and plated in a 24-well plate, and placed in a 37° C., 5% CO2 incubator to adhere overnight. Compounds were prepared into different concentrations by medium and added to a 24-well plate, and a vehicle control well was set up. After the cells were incubated in a 37° C., 5% CO2 incubator for 16 hours, the 24-well plate was taken out, and MC38-hPDL1 cells with different treatments in the plate were collected. After the cells were washed once with FACS buffer (PBS containing 0.5% BSA), and the cells were prepared to an appropriate density with FACS buffer. PE Mouse Anti-Human CD274 antibody (BD Pharmingen #557924) was added, and the cells were shaken at room temperature and incubated for 30 minutes without light, then the cells were washed twice with FACS buffer, resuspended in 100 μL of PBS, and a flow cytometer was used to detect the fluorescent signal on the cell surface, and the isotype control was set as a negative control.
The endocytosis rate of the compounds was calculated from the fluorescence signals of different treatment groups, and the compound concentration and endocytosis rate were fitted by nonlinear regression using GraphPad Prism software, and IC50 values were obtained, as shown in Table 2.

T1 sequence (Q9NZQ7 19-238): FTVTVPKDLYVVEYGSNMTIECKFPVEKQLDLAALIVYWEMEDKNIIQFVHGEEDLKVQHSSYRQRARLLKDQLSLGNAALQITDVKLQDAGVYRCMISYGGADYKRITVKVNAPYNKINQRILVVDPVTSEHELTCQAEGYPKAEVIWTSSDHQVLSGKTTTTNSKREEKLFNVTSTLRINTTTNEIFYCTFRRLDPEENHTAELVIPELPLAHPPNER
T2 sequence (Q9NZQ7 19-290): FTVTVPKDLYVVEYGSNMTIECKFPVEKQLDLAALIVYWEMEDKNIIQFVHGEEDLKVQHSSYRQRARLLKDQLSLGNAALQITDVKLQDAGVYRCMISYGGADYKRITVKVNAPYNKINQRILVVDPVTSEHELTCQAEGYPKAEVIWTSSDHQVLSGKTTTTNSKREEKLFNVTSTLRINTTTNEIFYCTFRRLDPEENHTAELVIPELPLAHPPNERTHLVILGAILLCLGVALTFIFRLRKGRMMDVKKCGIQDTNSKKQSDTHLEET

Row | Compound | IC50 (human PD-1/PD-L1 binding) | Emax [1] | IC50 [1]
1 | Cc1c(NC(=O)c2cc(C3CC3)c(CO)cn2)cccc1-c1cccc(NC(=O)c2nc3c(n2C)CCN(C)C3)c1Cl [Embodiment 51, N-(2-Chloro-3′-(4-cyclopropyl-5-(hydroxymethyl)picolinamido)-2′-methyl-[1,1′-biphenyl]-3-yl)-1,5-dimethyl-4,5,6,7-tetrahydro-1H-imidazo[4,5-c]pyridine-2-carboxamide] | 5.5 nM | 91% | 11.8 nM
2 | COc1cc(-c2cccc(-c3cccc(NC(=O)c4nc5c(n4C)CCN(C)C5)c3Cl)c2C)ncc1CNC1CCOCC1 [Embodiment 59, N-(2-Chloro-3′-(4-methoxy-5-(((tetrahydro-2H-pyran-4-yl)amino)methyl)pyridin-2-yl)-2′-methyl-[1,1′-biphenyl]-3-yl)-1,5-dimethyl-4,5,6,7-tetrahydro-1H-imidazo[4,5-c]pyridine-2-carboxamide] | 4.7 nM | 85% | 9.6 nM
3 | COc1cc(C(=O)Nc2cccc(-c3cccc(NC(=O)c4nc5c(n4C)CCN(C)C5)c3Cl)c2C)ncc1CNC1(C)COC1 [Embodiment 99, N-(2-Chloro-3′-(4-methoxy-5-(((3-methyloxetan-3-yl)amino)methyl)picolinamido)-2′-methyl-[1,1′-biphenyl]-3-yl)-1,5-dimethyl-4,5,6,7-tetrahydro-1H-imidazo[4,5-c]pyridine-2-carboxamide] | 4.4 nM | 91% | 3.9 nM
4 | COc1cc(C(=O)Nc2cccc(-c3cccc(NC(=O)c4nc5c(n4C)CCN(C)C5)c3Cl)c2C)ncc1CNc1cc(C)ccn1 [Embodiment 11, N-(2-Chloro-3′-(4-methoxy-5-(((4-methylpyridin-2-yl)amino)methyl)picolinamido)-2′-methyl-[1,1′-biphenyl]-3-yl)-1,5-dimethyl-4,5,6,7-tetrahydro-1H-imidazo[4,5-c]pyridine-2-carboxamide] | 5.1 nM | 85% | 8.1 nM
5 | C=CCNCc1cnc(C(=O)Nc2cccc(-c3cccc(NC(=O)c4nc5c(n4C)CCN(C)C5)c3Cl)c2C)cc1OC [Embodiment 41, N-(3′-(5-((Allylamino)methyl)-4-methoxypicolinamido)-2-chloro-2′-methyl-[1,1′-biphenyl]-3-yl)-1,5-dimethyl-4,5,6,7-tetrahydro-1H-imidazo[4,5-c]pyridine-2-carboxamide] | 4 nM | 90% | 1.9 nM
6 | COc1cc(C(=O)Nc2cccc(-c3cccc(NC(=O)c4nc5c(n4C)CCN(C)C5)c3Cl)c2C)ncc1CNC[C@@H]1CCC(=O)N1 [Embodiment 39, (S)—N-(2-Chloro-3′-(4-methoxy-5-((((5-carbonylpyrrolidin-2-yl)methyl)amino)methyl)picolinamido)-2′-methyl-[1,1′-biphenyl]-3-yl)-1,5-dimethyl-4,5,6,7-tetrahydro-1H-imidazo[4,5-c]pyridine-2-carboxamide] | 5 nM | 97% | 1.9 nM
7 | COc1cc(C(=O)Nc2cccc(-c3cccc(NC(=O)c4nc5c(n4C)CCN(C)C5)c3Cl)c2C)ncc1CN1CC(F)(CO)COC1=O (stereo not drawn) [Embodiment 22, N-(2-Chloro-3′-(5-((5-fluoro-5-(hydroxymethyl)-2-carbonyl-1,3-oxazinan-3-yl)methyl)-4-methoxypicolinamido)-2′-methyl-[1,1′-biphenyl]-3-yl)-1,5-dimethyl-4,5,6,7-tetrahydro-1H-imidazo[4,5-c]pyridine-2-carboxamide] | 5.9 nM | 92% | 14.5 nM
8 | COc1cc(C(=O)Nc2cccc(-c3cccc(NC(=O)c4nc5c(n4C)CCN(C)C5)c3Cl)c2C)ncc1CN[C@H]1CCCNC1=O [Embodiment 98, (S)—N-(2-Chloro-3′-(4-methoxy-5-(((2-carbonylpiperidin-3-yl)amino)methyl)picolinamido)-2′-methyl-[1,1′-biphenyl]-3-yl)-1,5-dimethyl-4,5,6,7-tetrahydro-1H-imidazo[4,5-c]pyridine-2-carboxamide] | 6.3 nM | 93% | 5.6 nM

The next lines start with the values.

Row | IC50 (human PD-1/PD-L1 binding) | Emax [1] | IC50 [1] | Compound
9 | 3.6 nM | 96% | 1.3 nM | COc1cc(C(=O)Nc2cccc(-c3cccc(NC(=O)c4nc5c(n4C)CCN(C)C5)c3Cl)c2C)ncc1CNC1CCOCC1 [Embodiment 35, N-(2-Chloro-3′-(4-methoxy-5-(((tetrahydro-2H-pyran-4-yl)amino)methyl)picolinamido)-2′-methyl-[1,1′-biphenyl]-3-yl)-1,5-dimethyl-4,5,6,7-tetrahydro-1H-imidazo[4,5-c]pyridine-2-carboxamide]
10 | 3.9 nM | 85% | 12 nM | CCN1CCc2c(nc(C(=O)Nc3cccc(-c4cccc(NC(=O)c5cc(OC)c(CNc6ccnc(OC)c6)cn5)c4Cl)c3Cl)n2C)C1 [Embodiment 82, N-(2,2′-Dichloro-3′-(4-methoxy-5-(((2-methoxypyridin-4-yl)amino)methyl)picolinamido)-[1,1′-biphenyl]-3-yl)-5-ethyl-1-methyl-4,5,6,7-tetrahydro-1H-imidazo[4,5-c]pyridine-2-carboxamide]
11 | 2.4 nM | 91% | 1.5 nM | COc1cc(C(=O)Nc2cccc(-c3cccc(NC(=O)c4nc5c(n4C)CCN(C)C5)c3Cl)c2C)ncc1CNCCF [Embodiment 18, N-(2-Chloro-3′-(5-(((2-fluoroethyl)amino)methyl)-4-methoxypicolinamido)-2′-methyl-[1,1′-biphenyl]-3-yl)-1,5-dimethyl-4,5,6,7-tetrahydro-1H-imidazo[4,5-c]pyridine-2-carboxamide]
12 | 2.1 nM | 91% | 12.2 nM | COc1cc(-c2cccc(-c3cccc(NC(=O)c4nc5c(n4C)CCN(C)C5)c3Cl)c2Cl)ncc1CNC[C@@H]1CCC(=O)N1 [Embodiment 56, (S)—N-(2,2′-Dichloro-3′-(4-methoxy-5-((((5-carbonylpyrrolidin-2-yl)methyl)amino)methyl)pyridin-2-yl)-[1,1′-biphenyl]-3-yl)-1,5-dimethyl-4,5,6,7-tetrahydro-1H-imidazo[4,5-c]pyridine-2-carboxamide]
13 | 2.4 nM | 86% | 5 nM | COc1cc(NCc2cnc(C(=O)Nc3cccc(-c4cccc(NC(=O)c5nc6c(n5C)CCNC6)c4Cl)c3Cl)cc2OC)ccn1 [Embodiment 81, N-(2,2′-Dichloro-3′-(4-methoxy-5-(((2-methoxypyridin-4-yl)amino)methyl)picolinamido)-[1,1′-biphenyl]-3-yl)-1-methyl-4,5,6,7-tetrahydro-1H-imidazo[4,5-c]pyridine-2-carboxamide]
